US20240051942A1, “SOLID FORM OF COMPOUND” (INXMED (NANJING) CO., LTD., priority 2020, published 2024)
≈ marks a conversion by molar mass, not a printed value. Counter-ions that a name gives are not always drawn.

Key:
Assay type in all cases: physicochemical
[1] = Solubility test (shaker 25° C., 24 hours, filtrate by HPLC); details: for solubility at 24 h: 25 °C, thermodynamic from solid
Procedure: (§1) A certain amount of crystalline form A of free base of the compound of formula (I), crystalline form I of the tartrate salt, and crystalline form III of the tartrate salt were weighed and placed in a 5 mL sample bottle. Deionized water, pH 2.0 glycine-hydrochloric acid buffer solution, pH 4.5 Na2HPO4-citric acid buffer solution, and pH 6.8 Na2HPO4-citric acid buffer solution were added respectively (each 2 mL). The mixture was placed on a shaker at 25° C., shaken for 24 hours, and then filtered. The filtrate was tested for solubility by HPLC; and the solid was detected by XRPD to determine whether the crystalline form was transformed.
The chromatographic conditions were as follows: • Chromatographic column: Unitary C18 (5 μm, 100 A, 4.6×250 mm) • Mobile phase: Phase A was ammonium acetate with pH of 6.2, and phase B was acetonitrile, A: B=10:90. • Detection wavelength: 230 nm, Column temperature: 35° C. • Injection volume: 20 μL

[2] = Accelerated stability test: influence factor test and accelerated test, solid XRPD; details: for Stability of crystalline form, summary in words: high temperature, high humidity, strong light and accelerated test conditions
Procedure: According to the stability test requirements for the raw drug in the fourth part of the 2015 edition of the “Chinese Pharmacopoeia”, “Guiding Principles for the Stability Test of Raw Drugs and Preparations”, the influence factor test and the accelerated test were investigated on crystalline form.
High temperature test (T): The powder was placed in a suitable sealed glass bottle, and placed at 60° C. for 10 days. Samples were taken on the 5th and 10th day to detect the solid XRPD.
High humidity test (H): The powder was placed in an open constant temperature and humidity box, and placed at 25° C., 90%±5% RH for 10 days. Samples were taken on the 5th and 10th day and the solid XRPD was detected so as to investigate the moisture absorption and deliquescence performances.
Strong light irradiation test (L): The powder was placed in an open box equipped with a fluorescent lamp, and placed under the condition of an illumination of 4500±5001x for 10 days. Samples were taken on the 5th and 10th day to detect the solid XRPD.
Accelerated test (A): The powder was placed in an open constant temperature and humidity box, and placed at 40° C., 75%±5% RH for 10 days. Samples were taken on the 5th and 10th day to detect the solid XRPD.

[3] = Stability under pressure condition (powder tablet press, XRPD); details: mechanical pressures of 2, 4, 6, 8, and 10 N, 5 minutes
Procedure: An appropriate amount of powders of crystalline form A of the free base, crystalline form I of the tartrate salt, and crystalline form III of the tartrate salt were weighed and evenly spread on the bottom of the mold of a powder tablet press. To simulate the pressure conditions in a formulation process, mechanical pressures of 2, 4, 6, 8, and 10 N were applied respectively. The pressure was kept stable for 5 minutes, and then samples were taken for XRPD to investigate the stability of the crystalline form under pressure conditions. For details of patterns, see FIGS. 24-26.

[4] = Stability under grinding condition (ball mill, XRPD); details: automatic ball mill, grinding 5, 10, 15, and 30 min
Procedure: An appropriate amount of powders of crystalline form A of the free base, crystalline form I of the tartrate salt and crystalline form III of the tartrate salt were weighed and evenly spread in an agate mortar. Agate beads were added. To simulate the grinding conditions in a formulation process, the vibration frequency of the automatic ball mill was set at 25S-1, and the grinding was carried out for 5, 10, 15, and 30 min, respectively. Then samples were taken for XRPD to investigate the stability of the crystalline form under grinding conditions. For details of patterns, see FIGS. 27-29.

[5] = Water adsorption and desorption test (DVS); details: for Moisture absorption: 25° C.
Procedure: • 4. Gravimetric Dynamic Vapor Sorption Isotherm Plot (DVS)
Dynamic water adsorption instrument (DVS) was used to investigate the adsorption and desorption test of crystalline forms I and III of the tartrate salt at 25° C. in the range of 0-95% relative humidity, so as to determine hygroscopicity of various crystalline forms (For details, see FIGS. 4d and 5d).

[6] = XRPD of the solid after the solubility test (crystal transformation)
Procedure: as §1

[7] = Suspension competitive crystal transformation test of crystalline forms I and III of the tartrate salt (XRPD); details: for Crystalline form after suspension competition: 24 h
Procedure: Crystalline form I and crystalline form III (each 20 mg) were weighed and added into a 2 mL or 10 mL glass bottle, and 0.5 mL or 1 mL of organic solvent was added, respectively, according to the solubility. Two batches were prepared with the same solvent, and placed respectively at room temperature and 50° C. for suspension competition for 24 h. The suspension was centrifuged (10000 rpm, 3 min). The obtained solid powder was then vacuum-dried and tested for XRPD (See FIGS. 30 and 31 for details).

[8] = Deionized water, 25° C., 24 hours
[9] = pH 2.0 glycine-hydrochloric acid buffer solution, 25° C., 24 hours
[10] = pH 4.5 Na2HPO4-citric acid buffer solution, 25° C., 24 hours
[11] = pH 6.8 Na2HPO4-citric acid buffer solution, 25° C., 24 hours
[12] = Accelerated (40° C./75%), 5 days
[13] = Accelerated (40° C./75%), 10 days
[14] = High humidity (92.5% RH), 25° C., 5 days
[15] = High humidity (92.5% RH), 25° C., 10 days
[16] = High temperature (60° C.), 5 days
[17] = High temperature (60° C.), 10 days
[18] = Strong light (4500 lx), 10 days
[19] = pH 6.8 buffered saline solution
[20] = solid after solubility test in deionized water

Row | Solubility [1, 8] [µg/mL] | Solubility [1, 9] [µg/mL] | Solubility [1, 10] [µg/mL] | Solubility [1, 11] [µg/mL] | Stability of crystalline form (XRPD) [2, 12] | Stability of crystalline form (XRPD) [2, 13] | Stability of crystalline form (XRPD) [2, 14] | Stability of crystalline form (XRPD) [2, 15] | Stability of crystalline form (XRPD) [2, 16] | Stability of crystalline form (XRPD) [2, 17] | Stability of crystalline form (XRPD) ([2]; Strong light (4500 lx), 5 days) | Stability of crystalline form (XRPD) [2, 18] | Stability of the crystalline form under pressure conditions (XRPD) [3] | Stability of the crystalline form under grinding conditions (XRPD) [4] | Moisture absorption ([5]; from 90% to 95% RH) [%] | Moisture absorption ([5]; humidity range of 40-80% RH) [%] | Solubility compared with the amorphous form of the free base [1, 19] | Crystal transformation as detected by XRPD [6, 20] | SMILES | Stability of crystalline form, summary in words [2] | further results
1 | >10000 | >10000 | >10000 | >10000 | Consistent | Consistent | Consistent | Consistent, | Consistent | Consistent | Consistent | Consistent | stable | become amorphous | 18.1 | 0.37 |  |  | COc1cc(C(=O)NC2CCN(C)CC2)c(F)cc1Nc1ncc(C(F)(F)F)c(Oc2cccc3c2C(=O)N(C)C3)n1 [Crystalline form III of the tartrate salt] | stable under above test conditions without crystal transformation | Solubility ([1]; all the solvent systems): very good solubility; Crystallinity ([2]; high-humidity environment): reduced
2 | 33 (≈ 0.0561 mM) | >10000 | >10000 | 1060 (≈ 1.8 mM) | Consistent | Consistent | Consistent | Consistent | Consistent | Consistent | Consistent | Consistent | stable | become amorphous |  |  | significantly improved | no crystal transformation | COc1cc(C(=O)NC2CCN(C)CC2)c(F)cc1Nc1ncc(C(F)(F)F)c(Oc2cccc3c2C(=O)N(C)C3)n1 [Crystalline form A of the free base] | stable under above test conditions without crystal transformation | Crystal transformation as detected by XRPD ([6]; solid after solubility test in pH 6.8 buffered saline solution): no crystal transformation
3 | 1070 (≈ 1.82 mM) |  |  | 50 (≈ 0.085 mM) |  |  |  |  |  |  |  |  |  |  |  |  |  |  | COc1cc(C(=O)NC2CCN(C)CC2)c(F)cc1Nc1ncc(C(F)(F)F)c(Oc2cccc3c2C(=O)N(C)C3)n1 [Amorphous form of the free base] |  | solubility at 24 h ([1]; Na2HPO4-citric acid buffer, pH 4.5, aqueous buffer, pH 4.5 Na2HPO4-citric acid buffer solution, 24 hours): 8500 µg/mL (≈ 14.4 mM); solubility at 24 h ([1]; glycine-hydrochloric acid buffer, pH 2, aqueous buffer, pH 2.0 glycine-hydrochloric acid buffer solution, 24 hours): > 10000 µg/mL
4 |  |  |  |  |  |  |  |  |  |  |  |  |  |  |  |  |  |  | COc1cc(C(=O)NC2CCN(C)CC2)c(F)cc1Nc1ncc(C(F)(F)F)c(Oc2cccc3c2C(=O)N(C)C3)n1 |  | Crystalline form after suspension competition ([7]; Cyclohexane, 50° C.): Mixture; Crystalline form after suspension competition ([7]; Cyclohexane, room temperature): Mixture; Crystalline form after suspension competition ([7]; Methyl tert-butyl ether, 50° C.): Mixture; Crystalline form after suspension competition ([7]; Methyl tert-butyl ether, room temperature): Mixture

Row | SMILES | Solubility [1, 8] [µg/mL] | Solubility [1, 9] [µg/mL] | Solubility [1, 10] [µg/mL] | Solubility [1, 11] [µg/mL] | Stability of crystalline form (XRPD) [2, 12] | Stability of crystalline form (XRPD) [2, 13] | Stability of crystalline form (XRPD) [2, 14] | Stability of crystalline form (XRPD) [2, 15] | Stability of crystalline form (XRPD) [2, 16] | Stability of crystalline form (XRPD) [2, 17] | Stability of crystalline form (XRPD) ([2]; Strong light (4500 lx), 5 days) | Stability of crystalline form (XRPD) [2, 18] | Stability of the crystalline form under pressure conditions (XRPD) [3] | Stability of the crystalline form under grinding conditions (XRPD) [4] | Moisture absorption ([5]; from 90% to 95% RH) [%] | Moisture absorption ([5]; humidity range of 40-80% RH) [%] | Solubility compared with the amorphous form of the free base [1, 19] | Crystal transformation as detected by XRPD [6, 20] | Stability of crystalline form, summary in words [2] | further results
5 | COc1cc(C(=O)NC2CCN(C)CC2)c(F)cc1Nc1ncc(C(F)(F)F)c(Oc2cccc3c2C(=O)N(C)C3)n1 [Crystalline form I of the tartrate salt] | 2590 | >10000 | 5200 | >10000 | Consistent | Consistent | Consistent | Consistent | Consistent | Consistent | Consistent | Consistent | stable | only reduced in the degree of crystallinity | 0.08 | 0.33 | significantly improved | no crystal transformation | stable under above test conditions without crystal transformation | Solubility compared with the amorphous form of the free base ([1]; deionized water): significantly improved; Weight gain (DVS) ([5]; increase in relative humidity from about 0 to about 95%): about 1%; Relative stability of the crystalline form in suspension competition ([7]; conventional solvents except methyl tert-butyl ether and cyclohexane, room temperature and 50° C.): stable crystalline form
